The numbers were not newly measured in US7204982B2, “Compositions and methods for treatment and detection of multiple cancers” (The Regents of the University of California, priority 2002, dated 2007), which cites them from elsewhere.

Structures can show the parent of a compound that is named as a salt.

Data set [1] deals with malignant gliomas. As to conditions: high doses, orally administered; Couldwell et al. 1996.
Data set [2] deals with human glioblastoma cell lines (U87, U373, and U138). The following applies: cell lines lack detectable estrogen receptor expression.

Consider `CC/C(=C(\c1ccccc1)c1ccc(OCCN(C)C)cc1)c1ccccc1` [tamoxifen, (Z)-2[p[(1,2-diphenyl-1-butenyl)phenoxyl]-N,N-dimethylamine citrate], for which the clinical benefit result in data set [1] was “of benefit in some patients with malignant gliomas”. Further, in data set [2], the cytotoxicity result is on record as “responsive to tamoxifen cytotoxicity”.
